# US20100267561A1, “HERBICIDAL PYRIDAZINONE DERIVATIVES” (priority 2007, published 2010)
# What was measured:
# Type in all cases: in vivo
# [1] = tested on: wheat (Triticum aestivum); assay: Test A pre-/postemergence plant response
# Text: (§1) Seeds of species selected from barnyardgrass (Echinochloa crus-galli), large crabgrass (Digitaria sanguinalis), giant foxtail (Setaria faberi), blackgrass (Alopecurus myosuroides), canarygrass (Phalaris minor), morningglory (Ipomoea coccinea), pigweed (Amaranthus retroflexus), velvetleaf (Abutilon theophrasti), wheat (Triticum aestivum), and corn (Zea mays) were planted into a blend of loam soil and sand and treated preemergence with a directed soil spray using test chemicals formulated in a non-phytotoxic solvent mixture which included a surfactant. At the same time these species were also treated with postemergence applications of test chemicals formulated in the same manner.
# (§2) Plants ranged in height from 2 to 10 cm and were in the one- to two-leaf stage for the postemergence treatment. Treated plants and untreated controls were maintained in a greenhouse for approximately 10 days, after which time all treated plants were compared to untreated controls and visually evaluated for injury. Plant response ratings, summarized in Table A, are based on a 0 to 100 scale where 0 is no effect and 100 is complete control. A dash (-) response means no test results.
# [2] = tested on: pigweed (Amaranthus retroflexus); assay: Test A pre-/postemergence plant response
# Text: as §1, §2
# [3] = tested on: velvetleaf (Abutilon theophrasti); assay: Test A pre-/postemergence plant response
# Text: as §1, §2
# [4] = tested on: morningglory (Ipomoea coccinea); assay: Test A pre-/postemergence plant response
# Text: as §1, §2
# [5] = tested on: giant foxtail (Setaria faberi); assay: Test A pre-/postemergence plant response
# Text: as §1, §2
# [6] = tested on: large crabgrass (Digitaria sanguinalis); assay: Test A pre-/postemergence plant response
# Text: as §1, §2
# [7] = tested on: barnyardgrass (Echinochloa crus-galli); assay: Test A pre-/postemergence plant response
# Text: as §1, §2
# corn (Zea mays) = assay: Test A pre-/postemergence plant response
# Text: as §1, §2
# [8] = tested on: umbrella sedge (Cyperus difformis); assay: Test B flooded paddy test plant response
# Text: (§3) Plant species in the flooded paddy test consisted of rice (Oryza sativa), umbrella sedge (Cyperus difformis), ducksalad (Heteranthera limosa) and barnyardgrass (Echinochloa crus-galli) grown to the 2-leaf stage for testing. At time of treatment, test pots were flooded to 3 cm above the soil surface, treated by application of test compounds directly to the paddy water, and then maintained at that water depth for the duration of the test. Treated plants and controls were maintained in a greenhouse for 13 to 15 days, after which time all species were compared to controls and visually evaluated. Plant response ratings, summarized in Table B, are based on a scale of 0 to 100 where 0 is no effect and 100 is complete control. A dash (-) response means no test result.
# rice (Oryza sativa) = assay: Test B flooded paddy test plant response
# Text: as §3
# [9] = tested on: ducksalad (Heteranthera limosa); assay: Test B flooded paddy test plant response
# Text: as §3
# [10] = tested on: barnyardgrass (Echinochloa crus-galli); assay: Test B flooded paddy test plant response
# Text: as §3
# [11] = Postemergence, 125 g ai/ha, 0 to 100 scale, 0 no effect, 100 complete control
# [12] = Postemergence, 500 g ai/ha, 0 to 100 scale, 0 no effect, 100 complete control
# [13] = Preemergence, 125 g ai/ha, 0 to 100 scale (0 no effect, 100 complete control)
# [14] = Preemergence, 500 g ai/ha, 0 to 100 scale (0 no effect, 100 complete control)
# [15] = Flood (flooded paddy test), 62 g ai/ha, scale 0 to 100, 0 no effect, 100 complete control
# [16] = Flood (flooded paddy test), 125 g ai/ha, scale 0 to 100, 0 no effect, 100 complete control
# [17] = Flood (flooded paddy test), 250 g ai/ha, scale 0 to 100, 0 no effect, 100 complete control
# [18] = Flood, 31 g ai/ha, scale 0 to 100
structure (smiles),measurement,setting,value
Cc1cc(-c2ccc(OC(F)(F)F)cc2)nn1-c1c(OC(=O)OC(C)C)cnn(C)c1=O [Compound 13],"Plant response rating, Wheat",[1]; [11],50
same,"Plant response rating, Wheat",[1]; [12],60
same,"Plant response rating, Wheat",[1]; [13],20
same,"Plant response rating, Wheat",[1]; [14],70
same,"Plant response rating, Pigweed",[2]; [11],0
same,"Plant response rating, Pigweed",[2]; [12],0
same,"Plant response rating, Pigweed",[2]; [13],0
same,"Plant response rating, Pigweed",[2]; [14],0
same,"Plant response rating, Velvetleaf",[3]; [11],0
same,"Plant response rating, Velvetleaf",[3]; [12],0
same,"Plant response rating, Velvetleaf",[3]; [13],0
same,"Plant response rating, Velvetleaf",[3]; [14],20
same,"Plant response rating, Morningglory",[4]; [11],0
same,"Plant response rating, Morningglory",[4]; [12],0
same,"Plant response rating, Morningglory",[4]; [13],0
same,"Plant response rating, Morningglory",[4]; [14],0
same,"Plant response rating, Foxtail, Giant",[5]; [11],70
same,"Plant response rating, Foxtail, Giant",[5]; [12],80
same,"Plant response rating, Foxtail, Giant",[5]; [13],70
same,"Plant response rating, Foxtail, Giant",[5]; [14],100
same,"Plant response rating, Crabgrass, Large",[6]; [11],20
same,"Plant response rating, Crabgrass, Large",[6]; [12],80
same,"Plant response rating, Crabgrass, Large",[6]; [13],60
same,"Plant response rating, Crabgrass, Large",[6]; [14],90
same,"Plant response rating, Barnyardgrass",[7]; [11],50
same,"Plant response rating, Barnyardgrass",[7]; [12],90
same,"Plant response rating, Barnyardgrass",[7]; [13],60
same,"Plant response rating, Barnyardgrass",[7]; [14],100
same,"Plant response rating, Corn",corn (Zea mays); [11],30
same,"Plant response rating, Corn",corn (Zea mays); [12],60
same,"Plant response rating, Corn",corn (Zea mays); [13],20
same,"Plant response rating, Corn",corn (Zea mays); [14],70
same,"Plant response rating, Sedge, Umbrella",[8]; [15],0
same,"Plant response rating, Sedge, Umbrella",[8]; [16],0
same,"Plant response rating, Sedge, Umbrella",[8]; [17],0
same,"Plant response rating, Sedge, Umbrella",[8]; [18],0
same,"Plant response rating, Rice",rice (Oryza sativa); [15],0
same,"Plant response rating, Rice",rice (Oryza sativa); [16],0
same,"Plant response rating, Rice",rice (Oryza sativa); [17],0
same,"Plant response rating, Rice",rice (Oryza sativa); [18],0
same,"Plant response rating, Ducksalad",[9]; [15],0
same,"Plant response rating, Ducksalad",[9]; [16],0
same,"Plant response rating, Ducksalad",[9]; [17],0
same,"Plant response rating, Ducksalad",[9]; [18],0
same,"Plant response rating, Barnyardgrass",[10]; [15],0
same,"Plant response rating, Barnyardgrass",[10]; [16],0
same,"Plant response rating, Barnyardgrass",[10]; [17],0
same,"Plant response rating, Barnyardgrass",[10]; [18],0
Cc1nn(-c2ccc(Cl)cc2)cc1-c1c(O)cnn(C)c1=O [Compound 29],"Plant response rating, Wheat",[1]; [11],0
same,"Plant response rating, Wheat",[1]; [12],20
same,"Plant response rating, Wheat",[1]; [13],0
same,"Plant response rating, Wheat",[1]; [14],0
same,"Plant response rating, Pigweed",[2]; [11],0
same,"Plant response rating, Pigweed",[2]; [12],0
same,"Plant response rating, Pigweed",[2]; [13],0
same,"Plant response rating, Pigweed",[2]; [14],0
same,"Plant response rating, Velvetleaf",[3]; [11],0
same,"Plant response rating, Velvetleaf",[3]; [12],0
same,"Plant response rating, Velvetleaf",[3]; [13],0
same,"Plant response rating, Velvetleaf",[3]; [14],0
same,"Plant response rating, Morningglory",[4]; [11],0
same,"Plant response rating, Morningglory",[4]; [12],0
same,"Plant response rating, Morningglory",[4]; [13],0
same,"Plant response rating, Morningglory",[4]; [14],0
same,"Plant response rating, Foxtail, Giant",[5]; [11],0
same,"Plant response rating, Foxtail, Giant",[5]; [12],80
same,"Plant response rating, Foxtail, Giant",[5]; [13],60
same,"Plant response rating, Foxtail, Giant",[5]; [14],100
same,"Plant response rating, Crabgrass, Large",[6]; [11],0
same,"Plant response rating, Crabgrass, Large",[6]; [12],50
same,"Plant response rating, Crabgrass, Large",[6]; [13],0
same,"Plant response rating, Crabgrass, Large",[6]; [14],40
same,"Plant response rating, Barnyardgrass",[7]; [11],10
same,"Plant response rating, Barnyardgrass",[7]; [12],50
same,"Plant response rating, Barnyardgrass",[7]; [13],0
same,"Plant response rating, Barnyardgrass",[7]; [14],70
same,"Plant response rating, Corn",corn (Zea mays); [11],0
same,"Plant response rating, Corn",corn (Zea mays); [12],0
same,"Plant response rating, Corn",corn (Zea mays); [13],0
same,"Plant response rating, Corn",corn (Zea mays); [14],0
same,"Plant response rating, Sedge, Umbrella",[8]; [15],0
same,"Plant response rating, Sedge, Umbrella",[8]; [16],0
same,"Plant response rating, Sedge, Umbrella",[8]; [17],0
same,"Plant response rating, Sedge, Umbrella",[8]; [18],0
same,"Plant response rating, Rice",rice (Oryza sativa); [15],0
same,"Plant response rating, Rice",rice (Oryza sativa); [16],0
same,"Plant response rating, Rice",rice (Oryza sativa); [17],0
same,"Plant response rating, Rice",rice (Oryza sativa); [18],0
same,"Plant response rating, Ducksalad",[9]; [15],0
same,"Plant response rating, Ducksalad",[9]; [16],0
same,"Plant response rating, Ducksalad",[9]; [17],0
same,"Plant response rating, Ducksalad",[9]; [18],0
same,"Plant response rating, Barnyardgrass",[10]; [15],0
same,"Plant response rating, Barnyardgrass",[10]; [16],0
same,"Plant response rating, Barnyardgrass",[10]; [17],0
same,"Plant response rating, Barnyardgrass",[10]; [18],0
COc1ccc(-c2cc(C)n(-c3c(O)cnn(C)c3=O)n2)cc1 [Compound 62],"Plant response rating, Wheat",[1]; [11],0
same,"Plant response rating, Wheat",[1]; [12],20
same,"Plant response rating, Wheat",[1]; [13],0
same,"Plant response rating, Wheat",[1]; [14],0
same,"Plant response rating, Pigweed",[2]; [11],0
same,"Plant response rating, Pigweed",[2]; [12],0
same,"Plant response rating, Pigweed",[2]; [13],0
same,"Plant response rating, Pigweed",[2]; [14],0
same,"Plant response rating, Velvetleaf",[3]; [11],0
same,"Plant response rating, Velvetleaf",[3]; [12],0
same,"Plant response rating, Velvetleaf",[3]; [13],0
same,"Plant response rating, Velvetleaf",[3]; [14],0
same,"Plant response rating, Morningglory",[4]; [11],0
same,"Plant response rating, Morningglory",[4]; [12],0
same,"Plant response rating, Morningglory",[4]; [13],0
same,"Plant response rating, Morningglory",[4]; [14],0
same,"Plant response rating, Foxtail, Giant",[5]; [11],40
same,"Plant response rating, Foxtail, Giant",[5]; [12],60
same,"Plant response rating, Foxtail, Giant",[5]; [13],0
same,"Plant response rating, Foxtail, Giant",[5]; [14],30
same,"Plant response rating, Crabgrass, Large",[6]; [11],50
same,"Plant response rating, Crabgrass, Large",[6]; [12],90
same,"Plant response rating, Crabgrass, Large",[6]; [13],20
same,"Plant response rating, Crabgrass, Large",[6]; [14],60
same,"Plant response rating, Barnyardgrass",[7]; [11],40
same,"Plant response rating, Barnyardgrass",[7]; [12],100
same,"Plant response rating, Barnyardgrass",[7]; [13],10
same,"Plant response rating, Barnyardgrass",[7]; [14],90
same,"Plant response rating, Corn",corn (Zea mays); [11],0
same,"Plant response rating, Corn",corn (Zea mays); [12],40
same,"Plant response rating, Corn",corn (Zea mays); [13],0
same,"Plant response rating, Corn",corn (Zea mays); [14],20
same,"Plant response rating, Sedge, Umbrella",[8]; [15],0
same,"Plant response rating, Sedge, Umbrella",[8]; [16],0
same,"Plant response rating, Sedge, Umbrella",[8]; [17],0
same,"Plant response rating, Sedge, Umbrella",[8]; [18],0
same,"Plant response rating, Rice",rice (Oryza sativa); [15],0
same,"Plant response rating, Rice",rice (Oryza sativa); [16],0
same,"Plant response rating, Rice",rice (Oryza sativa); [17],0
same,"Plant response rating, Rice",rice (Oryza sativa); [18],0
same,"Plant response rating, Ducksalad",[9]; [15],0
same,"Plant response rating, Ducksalad",[9]; [16],0
same,"Plant response rating, Ducksalad",[9]; [17],0
same,"Plant response rating, Ducksalad",[9]; [18],0
same,"Plant response rating, Barnyardgrass",[10]; [15],0
same,"Plant response rating, Barnyardgrass",[10]; [16],0
same,"Plant response rating, Barnyardgrass",[10]; [17],0
same,"Plant response rating, Barnyardgrass",[10]; [18],0
